Experiments:
Assay type in all cases: cell-based, mouse
VM DA (TH+) neurons [1] = test: OT-1 T cell cytotoxicity (killing) assay on VM DA neurons
Experimental: OT-1 CD8^+ cell proliferation was assessed by BrdU incorporation. For OT-1 T cell cytotoxicity assays, DC and VM (from C57BL/6 and 56.129P2-B2mtm1Unc/J mice) cell cultures were incubated with neuronal medium or neuronal medium containing 100 ng/ml of IFN-γ (R&D Systems). Neurons were loaded with or without […] (SEQ ID NO: 9) peptide (1 μM), and, subsequently in vitro activated OT-1 cells were added at a density of 100,000 cells/well and co-incubated for 24 h.
We used the same conditions for VM cell cultures with microglial medium previously stimulated with LPS, NM or α-syn instead of IFN-γ. Neurons were pre-incubated with IFN-γ and […] (SEQ ID NO: 9) peptide as above, and then with: 1) a pan-caspase general inhibitor (Z-VAD-FMK, 20 μM, 24h, IMGENEX); 2) a specific granzyme/perforin inhibitor (concanamycin A, 100 nM, 24h, Sigma Aldrich); 3) a specific Fas/FasL antagonist (Kp7-6, 1 mM, 24h, EMD Biosciences) and 4) concanamycin A and Kp7-6 together. OT-1 cells were then added to the culture (100,000 cells/well) and maintained for 24 h.
Following immunocytochemical staining of VM neurons, we assessed the proportion of surviving DA (TH^+) and non-DA cells (MAP-2^+, TH^−). Total numbers of TH^+ and MAP-2^+ neurons were counted in 24 fields surrounding the border of the well at 20× magnification. The number of surviving TH+ neurons with an intact soma and two or more neurites equal to or greater than the diameter of the cell soma was counted and normalized to the number in untreated cultures.

[2] = tested on: primary microglial cultures; test: ELISA of IFN-γ released by microglia; settings: primary microglial culture
Experimental: Briefly, for microglial cultures cells dissociated from 5 cortexes of 0-3 days old C57/B16 mice were seeded onto 75 cm^2 cell culture flasks in microglial culture medium (MEM supplemented with calf serum, glucose 45%, penicillin/streptomycin, insulin (25 mg/ml) and 200 mM glutamine) in a 5% CO^2 incubator at 37° C. (Sulzer et al., 2008). Two weeks later, microglia were detached from flasks by mild shaking and plated on 12 well-plates at a density of 45,000-50,000 microglial cells/well. For neuronal cultures, the area of interest was dissected and neurons were dissociated and plated at a density of 80,000/cm′ onto a layer of rat cortical glial cells grown on round glass coverslips and maintained in culture medium without added GDNF (glial cell line-derived neurotrophic factor) in a 5% CO^2 incubator at 37° C. for 5-9 days)(Sulzer et al., 2008). IFN-γ (R&D Systems) was used at a range of non-toxic concentrations for neurons or OT-1 cells (10 μg/ml-100 ng/ml, 72h). […] The concentration of IFN-γ released by microglia (plated as above) was measured by an ELISA kit (eBioscience) that detected the amount of this proinflammatory cytokine in a range of […].

primary VM neurons = test: MHC-I expression of VM neurons after microglial conditioned medium
Experimental: IFN-γ (R&D Systems) was used at a range of non-toxic concentrations for neurons or OT-1 cells (10 μg/ml-100 ng/ml, 72h). 12-well cell culture plates were pre-treated with LPS (500 ng/ml, Sigma-Aldrich), NM (5 μg/ml), α-syn, Nit-α-syn or Mut-α-syn (200 μg/ml, kindly provided by Peter Lansbury, Harvard University) for 72 h before plating 45,000-50,000 microglial cells/well for an additional 24h. A neutralizing IFN-γ antibody (1:500, PBL InterferonSource) was used to block IFN-γ released from microglia. VM neurons were incubated for 72 h with microglial medium pre-stimulated by LPS, NM, α-syn, Nit-α-syn or Mut-α-syn. As a control experiment, we directly incubated VM neurons with the same compounds in the absence of microglia. In another set of experiments, VM, cortical and striatal primary neurons were incubated for 72 h with microglial medium pre-stimulated by LPS, NM, α-syn. NM was induced in SN cultured neurons by using L-DOPA (Sulzer et al., 2000) (Sigma Aldrich). For foreign protein processing and subsequent antigen presentation, VM cultures were maintained for 7 days in either 1) BSA/serum-free neuronal medium, 2) BSA/serum-free supplemented with OVA (2.5 mg/ml), adding IFN-γ (100 ng/ml) or saline for an additional 72h.
Images were captured using a Leica SP5 microscope system. There was no fluorescence bleed-through of secondary antibodies under the conditions used. MHC-I label observed in the neuronal cultures obtained from wild type mice was absent in neurons from β2m KO mice (FIG. 3A).
(§1) In order to assess the proportion of TH^+ and MAP-2^+ neurons that expressed MHC-I^+, first TH^+ and MAP-2^+ neurons were counted in 24 fields surrounding the border of the well at 20× magnification. The number of TH^+ or MAP-2^+ neurons with intact soma and two or more neurites equal to or greater than the diameter of the cell soma was counted. Then, the fluorescent filter was inserted for each field to determine how many of these neurons also expressed MHC-I.

OT-1 CTL cells = test: OT-1 CD8+ cell proliferation by BrdU incorporation; settings: combination with IFN-γ; DC and VM neuronal cultures
Description: The capacity of CTLs to respond to MHC-I induced SN neurons was examined first, by following CTL proliferation using 5-bromo-2-deoxyuridine (BrdU) incorporation.
Primary DCs were obtained from mouse […] femur hematopoietic stem cells. In brief, mouse femur hematopoietic stem cells from bone marrow were harvested from the hind legs of 8 to 12-week old male wild-type C57BL/6J and plated at 2×10^6 cells/ml density in DC culture medium (DMEM supplemented with 10% FBS, lx non-essential amino acids, 2 mM L-glutamine, 1 mM sodium pyruvate and 20 mM HEPES). For differentiation to dendritic cells, 10 ng/ml of recombinant mouse GM-CSF was added to media. Cells were fed every 2 days with fresh DMEM containing GM-CSF, and the cultures were trypsinized after 8 days and plated at 4×10^5 cells/cm^2 density to be used for experiments the following day (Tallóczy et al., 2008). OT-1 CD8^+ and OT-2 CD4^+ T cell lines, a kind gift from Dr. Raphael Clynes (Department of Medicine and Microbiology, Columbia University Medical Center), express a transgene encoding T cell receptor that specifically recognizes […] (SEQ ID NO: 9) peptide (derived from OVA) bound to MHC-I H-2Kb or to MHC-II I-A/I-E (Hogquist et al., 1994). Activated primary OT-1 and OT-2 T cells were generated by the addition of […] […]
OT-1 CD8^+ cell proliferation was assessed by BrdU incorporation. […]

VM DA (TH+) neurons [3] = test: Antigen processing and presentation, […]-MHC-I immunolabel; settings: IFN-γ with extracellular SIINFEKL, positive control
Experimental: Following exposure of SN neuronal cultures to OVA or vehicle for 7 days, neurons were exposed to IFN-γ or saline for 72 h (note that these cultures were never exposed to […] (SEQ ID NO: 9)). The cultures were then double immunolabeled for TH and an antibody that recognizes only the MHC-I complex when is occupied by […] (SEQ ID NO: 9) ([…]-MHC-I). Occasional label of astrocytes, but not neurons, for […]-MHC-I was observed when the cultures were exposed to the vehicle, IFN-γ, or OVA alone (FIG. 5A). […] The results herein indicate that OVA had been processed to […] (SEQ ID NO: 9) within these mixed neuron/astrocyte cultures and loaded into the MHC-I groove within neuronal cytosol, and that the resulting complex was presented on the neuronal plasma membrane.
IFN-γ (R&D Systems) was used at a range of non-toxic concentrations for neurons or OT-1 cells (10 μg/ml-100 ng/ml, 72h). […]
Images were captured using a Leica SP5 microscope system. There was no fluorescence bleed-through of secondary antibodies under the conditions used. […]
as §1, with “Then, the fluorescent filter was inserted for each field to determine how many of these neurons also expressed MHC-I.” left out

Substance | neuronal death (VM DA (TH+) neurons [1]; SIINFEKL, CTLs and medium conditioned by microglia exposed to the substance) | IFN-γ secretion, in words [2] | cell surface MHC-I presentation by VM neurons (primary VM neurons; conditioned medium from microglia incubated 72 hours with the substance) | induction of neuronal MHC-I (primary VM neurons; cultures directly exposed, absence of microglial cells) | neuronal death (VM DA (TH+) neurons [1]; combination of CTLs, IFN-γ and SIINFEKL, MHC-I null (KO) SN neurons) | TH+ neurons killed (VM DA (TH+) neurons [1]; combination of CTLs, IFN-γ and SIINFEKL, wild type neurons) | CTL proliferation (OT-1 CTL cells) | TH+ neurons with SIINFEKL-MHC-I immunolabel (VM DA (TH+) neurons [3])
lipopolysaccharide [LPS, reference compound] | caused extensive neuronal death | induced IFN-γ secretion | elicited cell surface MHC-I presentation | no induction |  |  |  | 
SIINFEKL [8 amino acid peptide derived from OVA] |  |  |  |  | no neuronal death was triggered | 55% | induced similar CTL proliferation by both DC and VM neuronal cultures | ~70%

Reference: US20170184612A1, “USE OF LEUKOCYTES AND NOVEL BIOMARKERS IN THE DIAGNOSIS, CONFIRMATION, AND TREATMENT OF A NEUROLOGICAL DISORDER” (The Trustees of Columbia University in the City of New York, priority 2014, published 2017)
